In brackets after ≈: the same amount, converted by molar mass.
Key:
[1] = Inhibition of human PSEN1/APH1A expressed in MEF cells with Psen1/2 double knockout/Aph1ABC triple knockout by ELISA; type: cell-based
[2] = Inhibition of human PSEN1/APH1B expressed in MEF cells with Psen1/2 double knockout/Aph1ABC triple knockout by ELISA; type: cell-based
[3] = Inhibition of human PSEN2/APH1A expressed in MEF cells with Psen1/2 double knockout/Aph1ABC triple knockout by ELISA; type: cell-based
[4] = Inhibition of human PSEN2/APH1B expressed in MEF cells with Psen1/2 double knockout/Aph1ABC triple knockout by ELISA; type: cell-based
Cytochrome P450 2D6 = Cytochrome P450 2D6 (Homo sapiens, UniProt P10635); assay: Inhibition of human CYP2D6 using dextrometorphan as substrate by fluorescence based assay; type: ADME
Sequence of Cytochrome P450 2D6 (P10635 whole entry): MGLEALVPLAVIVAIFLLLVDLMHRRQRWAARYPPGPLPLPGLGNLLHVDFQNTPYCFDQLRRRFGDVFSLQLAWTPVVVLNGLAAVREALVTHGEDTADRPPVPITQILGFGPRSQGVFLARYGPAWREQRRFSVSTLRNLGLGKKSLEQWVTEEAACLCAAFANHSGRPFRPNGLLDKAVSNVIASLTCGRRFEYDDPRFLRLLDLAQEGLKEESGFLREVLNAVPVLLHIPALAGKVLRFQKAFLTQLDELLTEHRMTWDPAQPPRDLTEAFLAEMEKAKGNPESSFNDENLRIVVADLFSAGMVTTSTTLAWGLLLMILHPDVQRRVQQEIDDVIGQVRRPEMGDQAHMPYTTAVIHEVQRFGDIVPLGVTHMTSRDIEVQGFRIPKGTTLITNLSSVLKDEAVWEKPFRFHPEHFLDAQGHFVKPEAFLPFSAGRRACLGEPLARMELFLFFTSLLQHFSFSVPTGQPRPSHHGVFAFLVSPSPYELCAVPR

Cytochrome P450 3A4 = Cytochrome P450 3A4 (Homo sapiens, UniProt P08684); assay: Inhibition of human CYP3A4 using midazolam as substrate by fluorescence based assay; type: ADME
Sequence of Cytochrome P450 3A4 (P08684 whole entry): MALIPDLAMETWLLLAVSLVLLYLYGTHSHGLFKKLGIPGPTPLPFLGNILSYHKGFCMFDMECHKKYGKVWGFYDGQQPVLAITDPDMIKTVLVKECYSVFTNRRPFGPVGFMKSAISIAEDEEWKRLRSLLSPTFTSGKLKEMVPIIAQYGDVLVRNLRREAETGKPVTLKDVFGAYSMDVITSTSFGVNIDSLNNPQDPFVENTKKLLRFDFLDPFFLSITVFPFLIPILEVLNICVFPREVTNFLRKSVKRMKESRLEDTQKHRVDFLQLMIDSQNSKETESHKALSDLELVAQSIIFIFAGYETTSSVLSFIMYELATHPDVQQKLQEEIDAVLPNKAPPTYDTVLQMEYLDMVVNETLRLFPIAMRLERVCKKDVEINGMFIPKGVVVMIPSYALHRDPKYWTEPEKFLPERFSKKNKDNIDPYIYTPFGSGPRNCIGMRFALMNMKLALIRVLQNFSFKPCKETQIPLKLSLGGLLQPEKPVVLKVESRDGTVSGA

Cytochrome P450 2C8 = target: T1, Cytochrome P450 2C8 (Homo sapiens, UniProt P10632); assay: Inhibition of human CYP2C8 using amodiaquine as substrate by fluorescence based assay; type: ADME
T1 sequence (P10632 whole entry): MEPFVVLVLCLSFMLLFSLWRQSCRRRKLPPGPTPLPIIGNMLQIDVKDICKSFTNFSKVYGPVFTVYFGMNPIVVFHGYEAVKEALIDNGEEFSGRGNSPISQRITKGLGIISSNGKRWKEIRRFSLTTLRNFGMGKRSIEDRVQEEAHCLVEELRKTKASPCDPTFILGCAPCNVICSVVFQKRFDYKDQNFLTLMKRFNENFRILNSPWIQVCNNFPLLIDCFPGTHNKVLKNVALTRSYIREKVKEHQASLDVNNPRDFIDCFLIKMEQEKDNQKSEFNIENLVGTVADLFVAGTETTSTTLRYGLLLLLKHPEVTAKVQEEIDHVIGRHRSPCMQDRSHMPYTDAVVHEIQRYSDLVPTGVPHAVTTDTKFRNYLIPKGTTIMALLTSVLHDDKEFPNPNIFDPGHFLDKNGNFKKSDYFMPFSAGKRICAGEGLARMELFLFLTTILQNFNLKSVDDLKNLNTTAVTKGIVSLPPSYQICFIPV

Cytochrome P450 2C9 = Cytochrome P450 2C9 (Homo sapiens, UniProt P11712); assay: Inhibition of human CYP2C9 using tolbutamide as substrate by fluorescence based assay; type: ADME
Sequence of Cytochrome P450 2C9 (P11712 whole entry): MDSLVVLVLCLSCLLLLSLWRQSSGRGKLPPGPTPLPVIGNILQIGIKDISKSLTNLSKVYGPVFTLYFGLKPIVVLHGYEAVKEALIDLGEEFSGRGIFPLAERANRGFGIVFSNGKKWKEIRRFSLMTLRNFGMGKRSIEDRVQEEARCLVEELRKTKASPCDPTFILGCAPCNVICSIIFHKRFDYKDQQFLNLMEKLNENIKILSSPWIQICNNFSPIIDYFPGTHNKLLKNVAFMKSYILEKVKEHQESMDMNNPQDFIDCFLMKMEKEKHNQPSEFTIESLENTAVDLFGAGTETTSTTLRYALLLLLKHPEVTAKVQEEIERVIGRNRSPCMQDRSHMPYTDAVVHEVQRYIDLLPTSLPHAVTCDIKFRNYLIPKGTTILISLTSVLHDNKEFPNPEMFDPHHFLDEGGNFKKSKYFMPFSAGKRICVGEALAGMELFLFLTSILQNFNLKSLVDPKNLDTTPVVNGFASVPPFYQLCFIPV

Cytochrome P450 2C19 = Cytochrome P450 2C19 (Homo sapiens, UniProt P33261); assay: Inhibition of human CYP2C19 using S-mephenytoin as substrate by fluorescence based assay; type: ADME
Sequence of Cytochrome P450 2C19 (P33261 whole entry): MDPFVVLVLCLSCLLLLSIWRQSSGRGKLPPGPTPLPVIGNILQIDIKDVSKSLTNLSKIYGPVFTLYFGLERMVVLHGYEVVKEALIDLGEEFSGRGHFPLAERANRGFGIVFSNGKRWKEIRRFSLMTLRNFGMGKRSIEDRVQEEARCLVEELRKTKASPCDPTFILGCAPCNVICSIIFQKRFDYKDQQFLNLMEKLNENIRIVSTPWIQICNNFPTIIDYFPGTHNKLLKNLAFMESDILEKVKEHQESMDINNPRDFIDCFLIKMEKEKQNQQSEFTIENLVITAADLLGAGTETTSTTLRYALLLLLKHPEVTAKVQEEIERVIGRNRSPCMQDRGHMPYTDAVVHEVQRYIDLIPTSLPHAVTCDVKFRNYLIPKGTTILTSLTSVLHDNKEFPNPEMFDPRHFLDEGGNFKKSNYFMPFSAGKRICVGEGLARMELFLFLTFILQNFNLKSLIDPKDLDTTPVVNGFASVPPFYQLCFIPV

Cytochrome P450 1A2 = target: T2, Cytochrome P450 1A2 (Homo sapiens, UniProt P05177); assay: Inhibition of human CYP1A2 using phenacetin as substrate by fluorescence based assay; type: ADME
T2 sequence (P05177 whole entry): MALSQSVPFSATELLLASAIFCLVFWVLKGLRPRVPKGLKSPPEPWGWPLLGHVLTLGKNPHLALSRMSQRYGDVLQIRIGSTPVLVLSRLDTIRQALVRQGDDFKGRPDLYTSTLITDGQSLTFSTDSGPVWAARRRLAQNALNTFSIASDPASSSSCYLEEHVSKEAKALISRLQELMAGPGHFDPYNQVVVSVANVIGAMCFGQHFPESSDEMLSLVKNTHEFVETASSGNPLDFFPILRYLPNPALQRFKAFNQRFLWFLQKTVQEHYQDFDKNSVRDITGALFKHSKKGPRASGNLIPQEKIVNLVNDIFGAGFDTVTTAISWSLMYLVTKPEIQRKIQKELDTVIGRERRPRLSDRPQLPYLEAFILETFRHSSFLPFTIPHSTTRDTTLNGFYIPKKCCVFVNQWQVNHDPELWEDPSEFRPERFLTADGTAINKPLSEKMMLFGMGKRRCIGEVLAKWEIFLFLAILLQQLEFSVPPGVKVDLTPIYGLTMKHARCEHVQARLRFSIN

[5] = Protein binding in mouse plasma assessed as free fraction at 5 uM incubated for 4.5 hrs by HPLC analysis; type: ADME, cell-free
[6] = Free fraction in rat brain homogenate at 5 uM incubated for 5 hrs by HPLC-MS/MS analysis; type: ADME, tissue-based
[7] = Kinetic solubility of compound at pH 2; type: physicochemical; conditions: buffer, read-out: Kinetic_solubility
[8] = Kinetic solubility of compound at pH 4; type: physicochemical; conditions: buffer, read-out: Kinetic_solubility
[9] = Kinetic solubility of compound at pH 7.4; type: physicochemical; conditions: buffer, read-out: Kinetic_solubility
human MDR1 [10] = assay: Apparent permeability across apical to basal side in MDCK cells transfected with human MDR1 at 5 uM by LC-MS/MS analysis; type: ADME, cell-based, Canis lupus familiaris; conditions: dog
human MDR1 [11] = assay: Efflux ratio of apparent permeability basal to apical side over apical to basal side in MDCK cells transfected with human MDR1 at 5 uM by LC-MS/MS analysis; type: ADME, cell-based, Canis lupus familiaris; conditions: dog
[12] = target: Voltage-gated inwardly rectifying potassium channel KCNH2 (Homo sapiens, UniProt Q12809); assay: Inhibition of hERG; type: toxicity
Sequence of Voltage-gated inwardly rectifying potassium channel KCNH2 (Q12809 whole entry): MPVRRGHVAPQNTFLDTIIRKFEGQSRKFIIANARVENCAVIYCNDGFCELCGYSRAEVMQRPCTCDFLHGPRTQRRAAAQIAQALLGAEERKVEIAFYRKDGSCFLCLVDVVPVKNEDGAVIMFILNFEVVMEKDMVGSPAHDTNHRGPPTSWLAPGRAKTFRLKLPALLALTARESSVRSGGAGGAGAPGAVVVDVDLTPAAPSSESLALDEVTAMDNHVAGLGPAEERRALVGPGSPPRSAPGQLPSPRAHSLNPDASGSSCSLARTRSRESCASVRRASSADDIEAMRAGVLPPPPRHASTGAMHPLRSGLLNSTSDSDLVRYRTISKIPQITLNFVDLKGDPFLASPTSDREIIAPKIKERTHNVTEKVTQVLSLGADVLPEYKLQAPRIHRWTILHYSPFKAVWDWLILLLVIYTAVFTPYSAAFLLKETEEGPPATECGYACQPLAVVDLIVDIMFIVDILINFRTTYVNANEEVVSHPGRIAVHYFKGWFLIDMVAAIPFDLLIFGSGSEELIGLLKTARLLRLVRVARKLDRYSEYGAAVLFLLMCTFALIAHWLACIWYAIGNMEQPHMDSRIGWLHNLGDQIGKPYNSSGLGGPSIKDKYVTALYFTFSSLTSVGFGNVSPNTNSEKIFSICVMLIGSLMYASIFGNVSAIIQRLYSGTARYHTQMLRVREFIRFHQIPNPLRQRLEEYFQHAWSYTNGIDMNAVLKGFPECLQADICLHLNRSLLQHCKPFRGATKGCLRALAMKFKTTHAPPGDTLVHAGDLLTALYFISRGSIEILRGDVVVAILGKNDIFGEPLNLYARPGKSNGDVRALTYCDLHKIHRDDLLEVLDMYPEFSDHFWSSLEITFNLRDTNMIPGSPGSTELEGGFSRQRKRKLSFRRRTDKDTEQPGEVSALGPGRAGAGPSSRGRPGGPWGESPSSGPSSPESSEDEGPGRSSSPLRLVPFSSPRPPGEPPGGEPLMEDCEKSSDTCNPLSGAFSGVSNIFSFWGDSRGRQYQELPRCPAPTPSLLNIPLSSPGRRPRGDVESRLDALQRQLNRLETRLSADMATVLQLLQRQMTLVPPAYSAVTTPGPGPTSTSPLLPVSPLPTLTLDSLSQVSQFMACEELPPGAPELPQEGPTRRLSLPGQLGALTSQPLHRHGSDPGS

calcium channel = assay: Inhibition of rat calcium channel; type: toxicity
sodium channel = assay: Inhibition of rat sodium channel; type: toxicity
[13] = Drug concentration in Swiss mouse plasma at 2.5 mg/kg, iv measured at 5 mins post-dose; type: ADME, organism-based
[14] = Drug concentration in Swiss mouse brain at 2.5 mg/kg, iv measured at 5 mins post-dose; type: ADME, organism-based; conditions: read-out: Ct
[15] = Ratio of drug concentration in brain to plasma of Swiss mouse at 2.5 mg/kg, iv measured at 5 mins post-dose; type: ADME, organism-based; conditions: read-out: BPR
[16] = Unbound drug concentration in Swiss mouse plasma at 2.5 mg/kg, iv measured at 5 mins post-dose; type: ADME, organism-based; conditions: in vivo
[17] = Ratio of unbound drug concentration in brain to plasma in Swiss mouse at 2.5 mg/kg, iv measured at 5 mins post-dose; type: ADME, organism-based; conditions: read-out: K(p,uu,brain)
[18] = Half life in CD-1 mouse at 30 mg/kg, po measured at 4 hrs post-dose; type: ADME, organism-based; conditions: in vivo
[19] = Tmax in CD-1 mouse at 30 mg/kg, po measured at 4 hrs post-dose; type: ADME, organism-based; conditions: in vivo
[20] = AUClast in CD-1 mouse at 30 mg/kg, po measured at 4 hrs post-dose; type: ADME, organism-based; conditions: in vivo
[21] = AUC (0 to infinity) in CD-1 mouse at 30 mg/kg, po measured at 4 hrs post-dose; type: ADME, organism-based; conditions: in vivo
[22] = Volume of distribution at steady state in CD-1 mouse at 30 mg/kg, po measured at 4 hrs post-dose; type: ADME, organism-based; conditions: in vivo
[23] = MRT in CD-1 mouse at 30 mg/kg, po measured at 4 hrs post-dose; type: ADME, organism-based; conditions: in vivo
[24] = Metabolic stability in human liver microsomes assessed as intrinsic clearance; type: ADME, Microsome; conditions: microsomes
[25] = Metabolic stability in mouse liver microsomes assessed as intrinsic clearance; type: ADME, Microsome; conditions: microsomes
[26] = Protein binding in human plasma assessed as free fraction at 5 uM incubated for 4.5 hrs by HPLC analysis; type: ADME, cell-free

Structure (SMILES)	IC50 [1]	IC50 [2]	IC50 [3]	IC50 [4]	IC50 (Cytochrome P450 2D6)	IC50 (Cytochrome P450 3A4)	IC50 (Cytochrome P450 2C8)	IC50 (Cytochrome P450 2C9)	IC50 (Cytochrome P450 2C19)	IC50 (Cytochrome P450 1A2)	fraction unbound at 4.5 h, 5 µM [5]	fraction unbound at 5 h, 5 µM [6]	solubility kinetic [7]	solubility kinetic [8]	solubility kinetic [9]	Papp A→B at 5 µM (human MDR1 [10])	efflux ratio at 5 µM (human MDR1 [11])	IC50 [12]	IC50 (calcium channel)	IC50 (sodium channel)	also measured
O=S(=O)(c1ccc(Cl)cc1)N1[C@H]2CC[C@@H]([C@H]1c1ccc(C(F)(F)F)cc1)[C@@H](O)C2	0.019 µM	0.0055 µM	1.95 µM	2.14 µM	> 10 µM	3 µM	> 10 µM	> 10 µM	> 10 µM	> 10 µM	0.00309	0.00115	13 µM (≈ 5.8 µg/mL)	12 µM (≈ 5.35 µg/mL)	18 µM (≈ 8.03 µg/mL)	6.3 ×10⁻⁶ cm/s	1.95	> 10 µM	> 10 µM	> 10 µM	concentration at 5 min [13]: 680 ng/mL; concentration at 5 min [14]: 3620 ng/g; Kp at 5 min [15]: 5.4; Cp(f) [16]: 2.1 ng/mL; Kp uu at 5 min [17]: 1.97; half-life [18]: 28.9 min; Tmax [19]: 120 min; AUC(0-t) at 4 h [20]: 163 ng·h/mL; AUC [21]: 174 ng·h/mL; Vdss [22]: 3.43 L/kg; MRT [23]: 27.2 min
N#Cc1ccc([C@@H]2[C@@H]3CC[C@@H](C[C@@H]3O)N2S(=O)(=O)c2ccc(Cl)cc2)cn1	0.072 µM	0.0129 µM	1.23 µM	0.776 µM	> 10 µM	> 10 µM	> 10 µM	> 10 µM	> 10 µM	> 10 µM	0.0869	0.119	13 µM (≈ 5.25 µg/mL)	13 µM (≈ 5.25 µg/mL)	7 µM (≈ 2.83 µg/mL)	2.5 ×10⁻⁶ cm/s	32.3	> 10 µM	> 10 µM	> 10 µM	CLH [24]: 78.4 µL/min/mg; CLH [25]: 110 µL/min/mg; fraction unbound at 4.5 h, 5 µM [26]: 0.156; concentration at 5 min [13]: 731 ng/mL; concentration at 5 min [14]: 363 ng/g; Kp at 5 min [15]: 0.5; Cp(f) [16]: 63.5 ng/mL; Kp uu at 5 min [17]: 0.68

Reference: ChEMBL document CHEMBL5625242, “Discovery of brain permeable 2-Azabicyclo[2.2.2]octane sulfonamides as a novel class of presenilin-1 selective γ-secretase inhibitors” (Eur J Med Chem, 2023)
